# Assays:
# Experiment in all cases: LXR, FXR and VP16 reporter activity, cell-based, luciferase reporter, ROR modulator project, late-stage follow-up (AID 2117)
# [1] = target: Oxysterols receptor LXR-beta (Homo sapiens) (UniProt P55055); details: cell-based luciferase reporter panel, activation potency
# [2] = target: Bile acid receptor (Homo sapiens) (UniProt Q96RI1); details: cell-based luciferase reporter panel, FXR, activation potency
# [3] = target: Glucose-6-phosphatase catalytic subunit 1 (Homo sapiens) (UniProt P35575); details: cell-based luciferase reporter panel, G6Pase Promoter
# Glucose-6-phosphatase catalytic subunit 1 (Homo sapiens), sequence (P35575 whole entry, looked up): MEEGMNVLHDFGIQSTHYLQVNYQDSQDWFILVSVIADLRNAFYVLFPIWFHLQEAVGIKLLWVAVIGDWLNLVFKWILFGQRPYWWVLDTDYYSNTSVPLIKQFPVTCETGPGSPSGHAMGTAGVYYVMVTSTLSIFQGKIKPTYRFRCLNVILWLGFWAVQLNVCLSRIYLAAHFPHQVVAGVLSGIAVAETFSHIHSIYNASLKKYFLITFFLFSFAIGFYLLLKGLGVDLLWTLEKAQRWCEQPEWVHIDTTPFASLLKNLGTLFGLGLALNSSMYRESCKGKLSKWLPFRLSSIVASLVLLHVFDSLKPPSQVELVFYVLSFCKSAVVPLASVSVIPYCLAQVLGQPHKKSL
# Bile acid receptor (Homo sapiens), sequence (Q96RI1 whole entry, looked up): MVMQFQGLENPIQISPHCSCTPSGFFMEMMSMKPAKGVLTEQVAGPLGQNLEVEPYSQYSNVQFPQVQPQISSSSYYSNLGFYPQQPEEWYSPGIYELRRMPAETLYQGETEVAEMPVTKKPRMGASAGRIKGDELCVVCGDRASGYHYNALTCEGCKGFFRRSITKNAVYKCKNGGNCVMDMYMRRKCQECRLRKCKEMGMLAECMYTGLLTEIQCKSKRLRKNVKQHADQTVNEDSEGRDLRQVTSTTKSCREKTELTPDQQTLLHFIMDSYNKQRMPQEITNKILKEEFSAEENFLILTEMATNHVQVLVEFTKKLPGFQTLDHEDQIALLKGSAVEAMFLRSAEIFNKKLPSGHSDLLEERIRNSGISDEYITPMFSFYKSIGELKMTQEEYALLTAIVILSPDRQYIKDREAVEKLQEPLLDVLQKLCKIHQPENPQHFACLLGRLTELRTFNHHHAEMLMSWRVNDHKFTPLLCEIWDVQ
# Oxysterols receptor LXR-beta (Homo sapiens), sequence (P55055 whole entry, looked up): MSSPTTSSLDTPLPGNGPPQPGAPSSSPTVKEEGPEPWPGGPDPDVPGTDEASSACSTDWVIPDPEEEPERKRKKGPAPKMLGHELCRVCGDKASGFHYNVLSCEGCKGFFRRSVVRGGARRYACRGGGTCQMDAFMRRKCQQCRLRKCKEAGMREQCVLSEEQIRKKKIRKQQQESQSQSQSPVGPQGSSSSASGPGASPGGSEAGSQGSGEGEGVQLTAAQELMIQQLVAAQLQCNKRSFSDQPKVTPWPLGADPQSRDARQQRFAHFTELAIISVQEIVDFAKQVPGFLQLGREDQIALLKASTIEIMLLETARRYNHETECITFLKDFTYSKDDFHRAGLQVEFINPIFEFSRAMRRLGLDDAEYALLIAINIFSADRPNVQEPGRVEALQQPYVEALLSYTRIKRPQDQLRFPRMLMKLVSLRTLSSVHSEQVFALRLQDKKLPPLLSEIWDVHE
Compound,EC50 [1],EC50 [2],IC50 [3]
O=S(=O)(Nc1ccc(C(O)(C(F)(F)F)C(F)(F)F)cc1)c1cccc2cccnc12,> 6 µM,> 20 µM,
CC(C)(C)c1ccc(S(=O)(=O)Nc2ccc(C(O)(C(F)(F)F)C(F)(F)F)cc2)cc1,> 20 µM,> 20 µM,8.4 µM
COc1cccc(S(=O)(=O)Nc2ccc(C(O)(C(F)(F)F)C(F)(F)F)cc2)c1,18 µM,> 20 µM,

# Next, values leading:
EC50 [1],EC50 [2],IC50 [3],Compound
5.7 µM,12 µM,,O=S(=O)(Nc1ccc(C(O)(C(F)(F)F)C(F)(F)F)cc1)c1cccc2ccccc12
12 µM,> 20 µM,,O=S(=O)(Nc1ccc(C(O)(C(F)(F)F)C(F)(F)F)cc1)c1ccc(Cl)c2nonc12

# From PubChem BioAssay AID2117 (The Scripps Research Institute Molecular Screening Center, 2009)
